According to US8609847B2, “Dihydroquinolinone derivatives” (Taisho Pharmaceutical Co., Ltd, priority 2009, dated 2013):

Target: T1, human H3 receptor (Homo sapiens, UniProt Q9Y5N1)
T1 construct: purchased Perkin Elmer ES-392-M400UA; host or cells: CHO-K1 cells (recombinant expression), membrane preparation
Assay: H3 Receptor Binding Test
Settings: 50% inhibition of R(−)-α-methyl[3H]histamine (1 nM) binding; membrane preparation of human H3 receptor-expressing CHO-K1 cells
Method: A membrane preparation of human H3 receptor-expressing CHO-K1 cells (Perkin Elmer, ES-392-M400UA, 15 μg protein/200 μl), R(−)-α-methyl[^3H]histamine (Amersham, TRK-1017, specific activity: 1.74 TBq/mmol, 1 nM) and a test drug were reacted at room temperature for 1 hour. After completion of the reaction, the reaction mixture was subjected to suction filtration through a 0.3% polyethyleneimine-treated glass filter (GF/C). The glass filter was washed five times with 50 mM Tris-HCl washing solution (pH 7.4) containing 5 mM EDTA. After washing, the glass filter was dried and a scintillator was added thereto, followed by measurement of radioactivity on the filter using a liquid scintillation counter.
Binding of R(−)-α-methyl[^3H]histamine in the presence of 10 μM R(−)-α-methylhistamine was defined as non-specific binding, and the difference between total binding and non-specific binding of R(−)-α-methyl[^3H]histamine was defined as specific binding of R(−)-α-methyl[^3H]histamine. A fixed concentration (1 nM) of R(−)-α-methyl[^3H]histamine was reacted under the above conditions with each test drug at various concentrations to obtain an inhibition curve. The inhibition curve was used to determine the concentration (IC50) of each test drug required for 50% inhibition of R(−)-α-methyl[^3H]histamine binding.

T1 sequence (Q9Y5N1 whole entry): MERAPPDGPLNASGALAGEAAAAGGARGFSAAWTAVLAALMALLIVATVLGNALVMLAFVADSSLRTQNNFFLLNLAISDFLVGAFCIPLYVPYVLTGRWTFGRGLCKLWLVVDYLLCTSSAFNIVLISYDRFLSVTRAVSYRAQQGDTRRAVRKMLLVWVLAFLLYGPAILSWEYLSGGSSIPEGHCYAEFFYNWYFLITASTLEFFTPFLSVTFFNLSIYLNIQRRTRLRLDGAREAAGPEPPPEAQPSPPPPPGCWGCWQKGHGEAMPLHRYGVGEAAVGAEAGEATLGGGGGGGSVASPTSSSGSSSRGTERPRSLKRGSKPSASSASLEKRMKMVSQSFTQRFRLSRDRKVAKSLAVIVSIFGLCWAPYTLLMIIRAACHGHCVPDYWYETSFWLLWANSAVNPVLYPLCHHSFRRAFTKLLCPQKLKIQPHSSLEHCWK

SMILES | IC50 [nM]
O=C1CCc2cc(OCCCN3CCCC3)ccc2N1c1ccc(F)c(F)c1 [Compound No. 81, 1-(3,4-difluorophenyl)-6-[3-(pyrrolidin-1-yl)propoxy]-3,4-dihydroquinolin-2(1H)-one] | 18
COc1ccc(N2C(=O)CCc3cc(OC4CCN(C(C)(C)C)CC4)ccc32)cn1 [Compound No. 65, 6-[(1-tert-butylpiperidin-4-yl)oxy]-1-(6-methoxypyridin-3-yl)-3,4-dihydroquinolin-2(1H)-one] | 12
CC(C)(C)N1CCC(Oc2ccc3c(c2)CCC(=O)N3c2cncc(F)c2)CC1 [Compound No. 64, 6-[(1-tert-butylpiperidin-4-yl)oxy]-1-(5-fluoropyridin-3-yl)-3,4-dihydroquinolin-2(1H)-one] | 5.3
C[C@@H]1CCCN1CCCOc1ccc2c(c1)CCC(=O)N2c1c[nH]c2ccccc12 [Compound No. 57, 1-(1H-indol-3-yl)-6-{3-[(2R)-2-methylpyrrolidin-1-yl]propoxy}-3,4-dihydroquinolin-2(1H)-one] | 0.76
C[C@@H]1CCCN1CCCOc1ccc2c(c1)CCC(=O)N2c1cccc(C(=O)N(C)C)c1 [Compound No. 21, N,N-dimethyl-3-[6-{3-[(2R)-2-methylpyrrolidin-1-yl]propoxy}-2-oxo-3,4-dihydroquinolin-1(2H)-yl]benzamide] | 26
O=C1CCc2cc(OC3CCN(C4CC4)CC3)ccc2N1c1ccc(F)cc1 [Compound No. 77, 6-[(1-cyclopropylpiperidin-4-yl)oxy]-1-(4-fluorophenyl)-3,4-dihydroquinolin-2(1H)-one] | 2.1
C[C@@H]1CCCN1CCCOc1ccc2c(c1)CCC(=O)N2c1ccc(F)cc1F [Compound No. 29, 1-(2,4-difluorophenyl)-6-{3-[(2R)-2-methylpyrrolidin-1-yl]propoxy}-3,4-dihydroquinolin-2(1H)-one] | 1
COc1ccc(N2C(=O)CCc3cc(OC4CCN(C5CCC5)CC4)ccc32)cn1 [Compound No. 67, 6-[(1-cyclobutylpiperidin-4-yl)oxy]-1-(6-methoxypyridin-3-yl)-3,4-dihydroquinolin-2(1H)-one] | 2.7
C[C@@H]1CCCN1CCCOc1ccc2c(c1)CCC(=O)N2c1ccc(Cl)cc1F [Compound No. 30, 1-(4-chloro-2-fluorophenyl)-6-{3-[(2R)-2-methylpyrrolidin-1-yl]propoxy}-3,4-dihydroquinolin-2(1H)-one] | 1.1
CC(C)(C)N1CCC(Oc2ccc3c(c2)CCC(=O)N3c2ccc(C#N)cc2)CC1 [Compound No. 62, 4-{6-[(1-tert-butylpiperidin-4-yl)oxy]-2-oxo-3,4-dihydroquinolin-1(2H)-yl}benzonitrile] | 4.9
CC(C)(C)N1CCC(Oc2ccc3c(c2)CCC(=O)N3c2ccccc2)CC1 [Compound No. 61, 6-[(1-tert-butylpiperidin-4-yl)oxy]-1-phenyl-3,4-dihydroquinolin-2(1H)-one] | 2.4
C[C@@H]1CCCN1CCCOc1ccc2c(c1)CCC(=O)N2c1cn(C(=O)OC(C)(C)C)c2ccccc12 [Compound No. 42, tert-butyl 3-[6-{3-[(2R)-2-methylpyrrolidin-1-yl]propoxy}-2-oxo-3,4-dihydroquinolin-1(2H)-yl]-1H-indole-1-carboxylate] | 34
CC(C)(C)N1CCC(Oc2ccc3c(c2)CCC(=O)N3c2ccc(F)cc2)CC1 [Compound No. 66, 6-[(1-tert-butylpiperidin-4-yl)oxy]-1-(4-fluorophenyl)-3,4-dihydroquinolin-2(1H)-one] | 3.7
Cc1cc(OCCCN2CCC[C@H]2C)cc2c1N(c1ccc(F)cc1)C(=O)CC2 [Compound No. 86, 1-(4-fluorophenyl)-8-methyl-6-{3-[(2R)-2-methylpyrrolidin-1-yl]propoxy}-3,4-dihydroquinolin-2(1H)-one] | 12
C[C@@H]1CCCN1CCCOc1ccc2c(c1)CCC(=O)N2c1cc(Cl)cc(C#N)c1 [Compound No. 31, 3-chloro-5-[6-{3-[(2R)-2-methylpyrrolidin-1-yl]propoxy}-2-oxo-3,4-dihydroquinolin-1(2H)-yl]benzonitrile] | 1.9
C[C@@H]1CCCN1CCCOc1ccc2c(c1)CCC(=O)N2c1cncc(C#N)c1 [Compound No. 50, 5-[6-{3-[(2R)-2-methylpyrrolidin-1-yl]propoxy}-2-oxo-3,4-dihydroquinolin-1(2H)-yl]pyridine-3-carbonitrile] | 5.7
C[C@@H]1CCCN1CCCOc1ccc2c(c1)CCC(=O)N2c1cncc2cccnc12 [Compound No. 40, 6-{3-[(2R)-2-methylpyrrolidin-1-yl]propoxy}-1-(1,6-naphthylizin-8-yl)-3,4-dihydroquinolin-2(1H)-one] | 20

More lines, now with the values ahead:

IC50 [nM] | SMILES
41 | C[C@@H]1CCCN1CCCOc1ccc2c(c1)CCC(=O)N2c1ccc(N2CCOCC2)cc1 [Compound No. 17, 6-{3-[(2R)-2-methylpyrrolidin-1-yl]propoxy}-1-[4-(morpholin-4-yl)phenyl]-3,4-dihydroquinolin-2(1H)-one]
5.8 | C[C@@H]1CCCN1CCCOc1ccc2c(c1)CCC(=O)N2c1cncnc1 [Compound No. 36, 6-{3-[(2R)-2-methylpyrrolidin-1-yl]propoxy}-1-(pyrimidin-5-yl)-3,4-dihydroquinolin-2(1H)-one]
0.79 | C[C@@H]1CCCN1CCCOc1ccc2c(c1)CCC(=O)N2c1ccccc1 [Compound No. 2, 6-{3-[(2R)-2-methylpyrrolidin-1-yl]propoxy}-1-phenyl-3,4-dihydroquinolin-2(1H)-one]
8.7 | COc1ccc(N2C(=O)CCc3cc(OCCCN4CCC[C@H]4C)ccc32)cn1 [Compound No. 48, 1-(6-methoxypyridin-3-yl)-6-{3-[(2R)-2-methylpyrrolidin-1-yl]propoxy}-3,4-dihydroquinolin-2(1H)-one]
8.1 | C[C@@H]1CCCN1CCCOc1ccc2c(c1)CCC(=O)N2c1ccccn1 [Compound No. 34, 6-{3-[(2R)-2-methylpyrrolidin-1-yl]propoxy}-1-(pyridin-2-yl)-3,4-dihydroquinolin-2(1H)-one]
1.2 | COc1ccccc1N1C(=O)CCc2cc(OCCCN3CCC[C@H]3C)ccc21 [Compound No. 23, 1-(2-methoxyphenyl)-6-{3-[(2R)-2-methylpyrrolidin-1-yl]propoxy}-3,4-dihydroquinolin-2(1H)-one]
2 | COc1ccc(N2C(=O)CCc3cc(OCCCN4CCC[C@H]4C)ccc32)c(OC)c1 [Compound No. 25, 1-(2,4-dimethoxyphenyl)-6-{3-[(2R)-2-methylpyrrolidin-1-yl]propoxy}-3,4-dihydroquinolin-2(1H)-one]
2.9 | COCc1ccc(N2C(=O)CCc3cc(OCCCN4CCC[C@H]4C)ccc32)cc1 [Compound No. 11, 1-[4-(methoxymethyl)phenyl]-6-{3-[(2R)-2-methylpyrrolidin-1-yl]propoxy}-3,4-dihydroquinolin-2(1H)-one]
1 | C[C@@H]1CCCN1CCCOc1ccc2c(c1)CCC(=O)N2c1ccc(F)c(F)c1 [Compound No. 28, 1-(3,4-difluorophenyl)-6-{3-[(2R)-2-methylpyrrolidin-1-yl]propoxy}-3,4-dihydroquinolin-2(1H)-one]
1 | Cc1ccc(Oc2ccc(N3C(=O)CCc4cc(OCCCN5CCC[C@H]5C)ccc43)cc2)nn1 [Compound No. 20, 1-{4-[(6-methylpyridazin-3-yl)oxy]phenyl}-6-{3-[(2R)-2-methylpyrrolidin-1-yl]propoxy}-3,4-dihydroquinolin-2(1H)-one]
11 | C[C@@H]1CCCN1CCCOc1ccc2c(c1)CCC(=O)N2c1ccc(C(=O)C2CC2)cc1 [Compound No. 16, 1-[4-(cyclopropylcarbonyl)phenyl]-6-{3-[(2R)-2-methylpyrrolidin-1-yl]propoxy}-3,4-dihydroquinolin-2(1H)-one]
3.5 | C[C@@H]1CCCN1CCCOc1ccc2c(c1)CCC(=O)N2c1ccc(OC(F)(F)F)cc1 [Compound No. 9, 6-{3-[(2R)-2-methylpyrrolidin-1-yl]propoxy}-1-[4-(trifluoromethoxy)phenyl]-3,4-dihydroquinolin-2(1H)-one]
1.6 | C[C@@H]1CCCN1CCCOc1ccc2c(c1)CCC(=O)N2c1ccc(C(F)(F)F)cc1 [Compound No. 8, 6-{3-[(2R)-2-methylpyrrolidin-1-yl]propoxy}-1-[4-(trifluoromethyl)phenyl]-3,4-dihydroquinolin-2(1H)-one]
1.3 | C[C@@H]1CCCN1CCCOc1ccc2c(c1)CCC(=O)N2c1ccc2[nH]ccc2c1 [Compound No. 56, 1-(1H-indol-5-yl)-6-{3-[(2R)-2-methylpyrrolidin-1-yl]propoxy}-3,4-dihydroquinolin-2(1H)-one]
1.6 | C[C@@H]1CCCN1CCCOc1ccc2c(c1)CCC(=O)N2c1ccc(CO)cc1 [Compound No. 10, 1-[4-(hydroxymethyl)phenyl]-6-{3-[(2R)-2-methylpyrrolidin-1-yl]propoxy}-3,4-dihydroquinolin-2(1H)-one]
2.4 | COc1cc(F)cc(N2C(=O)CCc3cc(OCCCN4CCC[C@H]4C)ccc32)c1 [Compound No. 26, 1-(3-fluoro-5-methoxyphenyl)-6-{3-[(2R)-2-methylpyrrolidin-1-yl]propoxy}-3,4-dihydroquinolin-2(1H)-one]
